Assay results reported in a melting point compilation (Tetko et al.; mined from patent text by program, amines drawn as free bases though some values may be those of a salt).

SMILES | melting point [°C]
Cc1cc(OCc2ccc(-c3ccc(OC(F)(F)F)cc3)nc2C2CC2)ccc1OC(C)(C)C(=O)O | 131 to 133
O=C1NC(=O)C(Cc2ccc(OCCn3ccc4cccnc43)cc2)S1 (stereo unspecified) | 200 to 202
CCCCCCCCCCn1c(=O)n(C2OC(CO)C(O)C2O)c2nc(N)[nH]c(=O)c21 (stereo unspecified) | 174 to 176
CSc1nc2ccnn2c(N)c1C#N | > 240
CCCCCCCCCCCCc1ccc(NC(C)=O)c([N+](=O)[O-])c1 | 71 to 73
CCCn1c(=O)c2[nH]c(C34CC5CC(CC(O)(C5)C3)C4)nc2n(CCC)c1=O | 213 to 214
CNC(=O)C(Cc1ccc(O)cc1)NC(=O)Nc1n[nH]c(=S)s1 (stereo unspecified) | 198 to 200
Cc1c(CCCl)c(=O)oc2cc(O)cc(O)c12 | 218 to 220
CSC1=N/C(=C\c2c[nH]c3ncc(Cl)cc23)C(=O)N1 | > 410
COc1nc(C)c(C)nc1N(C)C(=O)N1CCN(c2cc(C)cc(C)c2)CC1 | 94 to 96
CN1C(=O)C2C3C=CC(CC3)C2S1=O (stereo unspecified) | 118 to 120
COc1nc(C)nc(NC(=O)NS(=O)(=O)c2ccccc2C(=O)Nc2nc[nH]n2)n1 | 176 to 179
Fc1ccc(-c2cc(C(F)(F)F)n3cnc(-c4ccncc4)c3n2)cc1Cl | 266
CC(C)(C)OC(=O)Nc1cc2cc(OCc3ccccc3)ccc2cc1OCc1ccccc1 | 179 to 182
COc1ccc(C(=O)OC(=O)NC(CO)Cc2ccc(O)cc2)cc1OC (stereo unspecified) | 152 to 155
CCOc1cc2c(cc1OCC)C(C(S)(C#N)c1ccc(Cl)cc1)=NCC2 (stereo unspecified) | 157 to 160
O=c1[nH]ccc2ncccc12 | 156 to 159
CCCCCCCCCCCCc1ccc(NC(C)=O)cc1 | 100 to 102
CCc1cc(Nc2ccc(-c3ccccc3C#N)cc2)n2nccc2n1 | 247 to 248
CNC(=NS(C)(=O)=O)NCCCCc1nc(NC(N)=NCC(F)(F)F)sc1C | 165 to 166
Cc1ccc(-c2nc(C)nn2-c2ccc(S(N)(=O)=O)cc2)cc1 | 248 to 249
O=[N+]([O-])c1ccc(S)c(Cl)c1 | 77 to 78

SMILES | melting point [°C]
NS(=O)(=O)c1cc2c(Cl)c(O)ccc2s1 | 198 to 201
O=C(Nc1c(Cl)cncc1Cl)c1ccc(OC(F)F)c2oc3ccc([N+](=O)[O-])cc3c12 | > 270
CCSC(=NC(C)=O)Nc1c(Cl)cccc1Cl | 97 to 100
COC(=O)Cc1ccc(CNC(=O)[C@@H](CCCNC(N)=N[N+](=O)[O-])NC(=O)C(c2ccccc2)c2ccccc2)cc1 | 158 to 160
COC(=O)/C=C/c1ccc2c(c1)nc(N)c1ncn(CC(C)(C)O)c12 | > 250
O=C(Oc1ccc2c(OC(=O)c3ccc(O)c(O)c3)c3cc(OC(=O)c4ccc(O)c(O)c4)ccc3cc2c1)c1ccc(O)c(O)c1 | 233
CCOP(=O)(CCN1CCC(N(CCN)S(=O)(=O)c2ccc(Nc3nccc(Nc4ccc(F)cc4)n3)cc2)CC1)OCC | 90
O=C1C(CBr)=C(CBr)C(=O)C(CBr)=C1CBr | 169 to 172
CC(C)(C)c1nc(C=O)cc(N)c1F | 129 to 130
O=c1c(/C=C/c2nnn[nH]2)coc2ccccc12 | 254 to 255
COc1cc(OC)c(Br)cc1O | 78 to 80
COC(=O)c1ccc2cc(OCc3cccc(COc4ccc5cc(C(=O)OC)ccc5c4)c3)ccc2c1 | 177 to 178
FC(F)(F)c1ccc2nnc(-c3c(Cl)cccc3Cl)n2c1 | 104 to 105
CCOC(=O)c1cnc2ccc(C(=O)c3ccc(Cl)cc3)cc2c1O | > 300
Cc1nc(-c2cnc3[nH]cc(C(=O)N[C@@H](C(=O)N4CC(C#N)C4)C(C)(C)C)c3n2)cn1-c1cc(F)cc(F)c1 | 187 to 190
O=C1C=CC(=O)N1c1ccc2c3c(cccc13)-c1ccccc1-2 | 185 to 186
COc1cc(C2=NCCO2)cc(OC)c1C(C)=O | 135 to 137
CC1(C)CCC(C)(C)C(=O)C1=O | 109 to 111
CC(C)(O)COc1c(-c2ccc(S(N)(=O)=O)cc2)cnn(-c2ccc(F)c(F)c2)c1=O | 65 to 69
COc1cc(N)c(Cl)cc1C(=O)N[C@H]1CCNC[C@H]1OC (relative stereo) | 184
CCOC(=O)c1cn(-c2cc(N(C)C(=O)OC(C)(C)C)c(F)cc2F)c2c(C)c(F)c(F)cc2c1=O | 217 to 218

Next, values leading:

melting point [°C] | SMILES
84.5 | Cc1c(F)ncn1CC(=O)c1ccccc1
72 to 73 | O=C(O)CCc1nc(-c2ccccc2)cs1
150 | COc1ccc2c(c1)C(C(=O)O)=Cc1ccccc1O2
62 to 63 | CCOC(=O)/C=C/c1cnn(Cc2ccccc2)c1-c1ccccc1
91 to 92 | Cc1c(Cc2cccc(C(F)(F)F)c2)oc2cccc(O)c12
155 to 156 | CCC1c2cccn2-c2c(cc(F)c(F)c2F)N1S(=O)(=O)c1ccc(O)cc1 (stereo unspecified)
86 | Cc1cc(-n2ccnc2)c2cccc(OCc3c(Cl)ccc(S(=O)(=O)N4CCC[C@H]4C(=O)NCC4CCN(C)CC4)c3Cl)c2n1
196 to 197 | CN(C)NC1=C2N=c3cc(Cl)ccc3=C2Oc2ccccc2N1C
213 to 214 | O=C(O)C1=Cc2cc(-c3ccc(F)cc3)ccc2CC1
58 | O=C(c1ccc(F)cc1O)C1CC1
233 to 234 | C[C@H](CN1CC[C@@H](F)C1)NC(=O)c1c[nH]c2ncc(-c3nn(C)c4cc(Cl)ccc34)nc12
185 to 188 | O=C(NCc1ccc2c(c1)OCO2)Nc1cc(N2CC(c3ccccc3)CC2=O)ccn1 (stereo unspecified)
123 to 124 | Cc1cc(C(=O)c2ccccc2)ccc1NC(=O)C(C)(O)C(F)(F)F (stereo unspecified)
104 to 106 | Nc1ccc2c(c1)N(C1CCN(CCc3ccc(F)cc3)CC1)CC2
169 to 175 | Cc1cc(-c2cccc(S(F)(F)(F)(F)F)c2)c(S(C)(=O)=O)cc1C(=O)NC(=N)N
133 to 134 | Cc1c(C)c2c(c(C)c1N)CC(C)(CN1CCC(NC(c3ccc(F)cc3)c3ccc(F)cc3)CC1)O2 (stereo unspecified)
58 to 59 | COC(=O)COc1cccc2c(CCBr)coc12
124 to 126 | CCC(OCC(F)(F)F)c1ccc(Cl)c2nc3n(c12)CCCN3c1ccc(OC)nc1C (stereo unspecified)
129 to 131 | COC(=O)CCCc1cc2nc(Cl)ccc2n1S(=O)(=O)c1ccc(F)c([N+](=O)[O-])c1
148 to 149 | O=C(Nc1ccncc1)C1c2ccccc2CCc2ccccc21
178 to 179 | O=C(O)C(C1CC(Cl)=NO1)N1C(=O)c2ccccc2C1=O (stereo unspecified)
93 to 95 | CN1CCC(O)(Cc2ccccc2F)CC1
200 to 205 | O=c1c2cc(Br)ccc2[nH]n1-c1ccccc1F
44 to 47 | CC(=O)CCCCN1CCN(c2ncccn2)CC1
83 to 87 | COc1ccccc1Cn1c(=O)c2c(Cl)cc(N3CCNCC3)cc2n(Cc2ccccc2)c1=O
104 to 107 | C=C(C(=O)OC1CC2CCC(C1)N2C(C)=O)c1ccccc1 (stereo unspecified)
82 to 84 | CCC(CC)(NCCCn1cnc(CO)c1)c1ccccc1
150 to 151 | Clc1cccc2c1Oc1ccccc1N=C2N1CCN2CCC[C@H]2C1
